Read-outs that look alike come from different tables or passages of the source.
Assays:
[1] = biological target: C. elegans (N2) complex I (NADH:ubiquinone oxidoreductase) (Caenorhabditis elegans, UniProt P24887+Q93873+Q94360); test: biochemical; format: biochemical; details: for Log IC50 C. elegans complex I: log10 of IC50 in µM, C. elegans mitochondria; for activity at 0.0001 µM / activity at 0.0005 µM / activity at 0.001 µM / activity at 0.0025 µM / activity at 0.005 µM / activity at 0.013 µM / activity at 0.025 µM / activity at 0.063 µM / activity at 0.125 µM / activity at 0.313 µM / activity at 0.625 µM / activity at 1.5 µM / activity at 3 µM / activity at 15 µM / activity at 37.5 µM / activity at 75 µM: read-out: C. elegans mitochondrial complex I activity
Chain of C. elegans (N2) complex I (NADH:ubiquinone oxidoreductase) (Q94360 17-199): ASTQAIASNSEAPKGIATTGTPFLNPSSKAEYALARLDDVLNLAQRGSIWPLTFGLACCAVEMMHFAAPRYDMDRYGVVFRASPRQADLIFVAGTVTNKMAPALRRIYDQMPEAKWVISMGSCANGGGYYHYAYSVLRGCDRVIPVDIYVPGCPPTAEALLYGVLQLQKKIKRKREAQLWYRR
Chain of C. elegans (N2) complex I (NADH:ubiquinone oxidoreductase) (P24887 whole entry): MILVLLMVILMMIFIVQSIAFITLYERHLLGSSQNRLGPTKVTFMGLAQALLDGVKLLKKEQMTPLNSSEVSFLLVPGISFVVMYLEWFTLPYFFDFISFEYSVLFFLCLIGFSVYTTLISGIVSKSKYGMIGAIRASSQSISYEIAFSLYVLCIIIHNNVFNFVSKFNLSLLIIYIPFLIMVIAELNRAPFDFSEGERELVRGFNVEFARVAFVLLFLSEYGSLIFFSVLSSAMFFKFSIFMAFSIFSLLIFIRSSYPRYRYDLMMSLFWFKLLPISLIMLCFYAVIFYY
Chain of C. elegans (N2) complex I (NADH:ubiquinone oxidoreductase) (Q93873 31-482): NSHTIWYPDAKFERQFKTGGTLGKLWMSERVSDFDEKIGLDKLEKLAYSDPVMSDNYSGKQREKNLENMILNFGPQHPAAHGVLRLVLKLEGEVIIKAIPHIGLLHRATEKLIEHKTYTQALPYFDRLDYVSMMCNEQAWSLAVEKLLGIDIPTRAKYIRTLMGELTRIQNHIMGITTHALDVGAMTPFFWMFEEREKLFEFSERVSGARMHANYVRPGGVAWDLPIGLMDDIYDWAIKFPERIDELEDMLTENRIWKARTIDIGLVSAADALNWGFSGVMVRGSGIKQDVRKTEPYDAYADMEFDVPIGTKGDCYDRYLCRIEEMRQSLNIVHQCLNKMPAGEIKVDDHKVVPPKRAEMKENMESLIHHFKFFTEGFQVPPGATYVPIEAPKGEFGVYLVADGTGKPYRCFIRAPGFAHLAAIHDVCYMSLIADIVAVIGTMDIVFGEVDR
Summary of the method: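 Complex I rate: initial linear slope of A600 over 15 min, expressed as percent of solvent control. Triple freeze-thawed mitochondria (0.2 mg/mL) in KPi pH 7.5, BSA 3 mg/mL, NADH 80 μM, decylubiquinone 60 μM, DCIP 160 μM, antimycin A, KCN.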

[2] = in vitro; details: human; for viability at 2 days, 3.13 µM / viability at 2 days, 6.25 µM / viability at 2 days, 12.5 µM / viability at 2 days, 25 µM / viability at 2 days, 50 µM / viability at 2 days, 100 µM: HEK293 cells (Flp-In-293), HEK293 viability
[3] = tested on: L1 wild-type C. elegans; details: for Screen "Hit": 50 μM
[4] = in vitro complex I dose response on C. elegans mitochondria, average of at least two biological replicates, fit in R (DRC), read-out: IC50 C. elegans complex I
[5] = wild-type (N2) mitochondria, read-out: C. elegans Complex I IC50
[6] = wild-type C. elegans mitochondria, estimated from fitted dose-response curves, read-out: C. elegans Complex I IC50
[7] = HEK293 Cell Viability Assay LC50, HEK293 cells, estimated from fitted dose-response curves, mean of at least two biological replicates
[8] = KCN survival assay, hit = relative motility below 0.25
[9] = Dose 0.2 µM, mean of at least three biological replicates
[10] = wild-type C. elegans mitochondria, read-out: C. elegans Complex I IC50
[11] = HEK293 Cell Viability Assay LC50, HEK293 cells, estimated from fitted dose-response curves
[12] = hit = relative motility below 0.25 3 hours after removal of KCN

Cc1ccc(Cn2c(C)nc3ccccc32)cc1 [Compound 5651984]
IC50 [1, 4]: 180 nM | Log IC50 C. elegans complex I [1]: -0.74 µM | IC50 [1, 5]: 180 nM | IC50 [1, 6]: 180 nM | CC50 at 2 days [2, 7]: 95400 nM | Screen "Hit" [3, 8]: Y (hits were identified as compounds that reduced relative motility below 0.25 (75% reduction))

Nc1nc2ccccc2n1Cc1ccc(Cl)cc1 [Compound 5652765]
activity at 0.0001 µM [1]: 86.1% | activity at 0.0005 µM [1]: 92.1% | activity at 0.001 µM [1]: 93.5% | activity at 0.0025 µM [1]: 93.8% | activity at 0.005 µM [1]: 90.5% | activity at 0.013 µM [1]: 90.4% | activity at 0.025 µM [1]: 78.8% | activity at 0.063 µM [1]: 76.6% | activity at 0.125 µM [1]: 72.5% | activity at 0.313 µM [1]: 39.7% | activity at 0.625 µM [1]: 49.3% | activity at 1.5 µM [1]: 25.2% | activity at 3 µM [1]: 11.5% | activity at 15 µM [1]: 0.44% | activity at 37.5 µM [1]: 0.7% | activity at 75 µM [1]: 0.75% | IC50 [1, 4]: 470 nM | Log IC50 C. elegans complex I [1]: -0.33 µM | IC50 [1, 5]: 470 nM | IC50 [1, 6]: 470 nM | CC50 at 2 days [2, 7]: 58900 nM | viability at 2 days, 3.13 µM [2]: 94.2% | viability at 2 days, 6.25 µM [2]: 94% | viability at 2 days, 12.5 µM [2]: 92.9% | viability at 2 days, 25 µM [2]: 94.5% | viability at 2 days, 50 µM [2]: 62.3% | viability at 2 days, 100 µM [2]: 10% | Screen "Hit" [3, 8]: Y (hits were identified as compounds that reduced relative motility below 0.25 (75% reduction)) | C. elegans KCN Survival [3, 9]: 0.973 | C. elegans KCN Survival ([3]; Dose 0.39 µM): 1.034 | C. elegans KCN Survival ([3]; Dose 1.56 µM): 1.067 | C. elegans KCN Survival ([3]; Dose 3.13 µM): 1.051 | C. elegans KCN Survival ([3]; Dose 6.25 µM): 1.001 | C. elegans KCN Survival ([3]; Dose 12.5 µM): 0.758 | C. elegans KCN Survival ([3]; Dose 25 µM): 0.271 | C. elegans KCN Survival ([3]; Dose 50 µM): 0.140 | C. elegans KCN Survival ([3]; Dose 100 µM): 0.216

Cc1nc2ccccc2n1Cc1ccc(Cl)c(Cl)c1 [Compound 5655567]
activity at 0.0001 µM [1]: 86.1% | activity at 0.0005 µM [1]: 92.1% | activity at 0.001 µM [1]: 93.5% | activity at 0.0025 µM [1]: 93.8% | activity at 0.005 µM [1]: 90.5% | activity at 0.013 µM [1]: 90.4% | activity at 0.025 µM [1]: 78.8% | activity at 0.063 µM [1]: 76.6% | activity at 0.125 µM [1]: 72.5% | activity at 0.313 µM [1]: 39.7% | activity at 0.625 µM [1]: 49.3% | activity at 1.5 µM [1]: 25.2% | activity at 3 µM [1]: 11.5% | activity at 15 µM [1]: 0.44% | activity at 37.5 µM [1]: 0.7% | activity at 75 µM [1]: 0.75% | IC50 [1, 4]: 470 nM | Log IC50 C. elegans complex I [1]: -0.33 µM | IC50 [1, 5]: 470 nM | IC50 [1, 6]: 470 nM | CC50 at 2 days [2, 7]: 64400 nM | viability at 2 days, 3.13 µM [2]: 100% | viability at 2 days, 6.25 µM [2]: 100% | viability at 2 days, 12.5 µM [2]: 100% | viability at 2 days, 25 µM [2]: 88.9% | viability at 2 days, 50 µM [2]: 72.1% | viability at 2 days, 100 µM [2]: 15.5% | Screen "Hit" [3, 8]: Y (hits were identified as compounds that reduced relative motility below 0.25 (75% reduction)) | C. elegans KCN Survival [3, 9]: 0.934 | C. elegans KCN Survival ([3]; Dose 0.39 µM): 0.972 | C. elegans KCN Survival ([3]; Dose 1.56 µM): 0.973 | C. elegans KCN Survival ([3]; Dose 3.13 µM): 0.953 | C. elegans KCN Survival ([3]; Dose 6.25 µM): 0.756 | C. elegans KCN Survival ([3]; Dose 12.5 µM): 0.219 | C. elegans KCN Survival ([3]; Dose 25 µM): 0.111 | C. elegans KCN Survival ([3]; Dose 50 µM): 0.120 | C. elegans KCN Survival ([3]; Dose 100 µM): 0.176

Cc1ccc(OCCn2cnc3ccccc32)cc1 [Compound 5671538]
activity at 0.0001 µM [1]: 97.2% | activity at 0.0005 µM [1]: 96.5% | activity at 0.001 µM [1]: 95.3% | activity at 0.0025 µM [1]: 106% | activity at 0.005 µM [1]: 90.9% | activity at 0.013 µM [1]: 104% | activity at 0.025 µM [1]: 98% | activity at 0.063 µM [1]: 92.5% | activity at 0.125 µM [1]: 91.2% | activity at 0.313 µM [1]: 90% | activity at 0.625 µM [1]: 88.7% | activity at 1.5 µM [1]: 79.2% | activity at 3 µM [1]: 75% | activity at 15 µM [1]: 18.9% | activity at 37.5 µM [1]: 23.9% | activity at 75 µM [1]: 13.8% | IC50 [1, 4]: 5330 nM | Log IC50 C. elegans complex I [1]: 0.73 µM | IC50 [1, 10]: 5330 nM | CC50 at 2 days [2, 11]: > 100000 nM | viability at 2 days, 3.13 µM [2]: 92.2% | viability at 2 days, 6.25 µM [2]: 98.5% | viability at 2 days, 12.5 µM [2]: 97.1% | viability at 2 days, 25 µM [2]: 96.2% | viability at 2 days, 50 µM [2]: 96.4% | viability at 2 days, 100 µM [2]: 61.4% | Screen "Hit" [3, 12]: Y (hits were identified as compounds that reduced relative motility below 0.25 (75% reduction)) | C. elegans KCN Survival [3, 9]: 0.927 | C. elegans KCN Survival ([3]; Dose 0.39 µM): 0.931 | C. elegans KCN Survival ([3]; Dose 1.56 µM): 0.891 | C. elegans KCN Survival ([3]; Dose 3.13 µM): 0.844 | C. elegans KCN Survival ([3]; Dose 6.25 µM): 0.828 | C. elegans KCN Survival ([3]; Dose 12.5 µM): 0.784 | C. elegans KCN Survival ([3]; Dose 25 µM): 0.550 | C. elegans KCN Survival ([3]; Dose 50 µM): 0.033 | C. elegans KCN Survival ([3]; Dose 100 µM): 0.00256

Nc1nc2ccccc2n1CCOc1ccc(Br)cc1 [Compound 5842535]
activity at 0.0001 µM [1]: 80% | activity at 0.0005 µM [1]: 92.9% | activity at 0.001 µM [1]: 87.5% | activity at 0.0025 µM [1]: 88.5% | activity at 0.005 µM [1]: 89.3% | activity at 0.013 µM [1]: 88.3% | activity at 0.025 µM [1]: 81.7% | activity at 0.063 µM [1]: 79.5% | activity at 0.125 µM [1]: 81.6% | activity at 0.313 µM [1]: 76.9% | activity at 0.625 µM [1]: 83.9% | activity at 1.5 µM [1]: 76.4% | activity at 3 µM [1]: 65% | activity at 15 µM [1]: 17.8% | activity at 37.5 µM [1]: 0.13% | activity at 75 µM [1]: 0% | IC50 [1, 4]: 6200 nM | Log IC50 C. elegans complex I [1]: 0.79 µM | IC50 [1, 10]: 6200 nM | CC50 at 2 days [2, 11]: 17300 nM | viability at 2 days, 3.13 µM [2]: 79.2% | viability at 2 days, 6.25 µM [2]: 82.9% | viability at 2 days, 12.5 µM [2]: 67.8% | viability at 2 days, 25 µM [2]: 11% | viability at 2 days, 50 µM [2]: 6.3% | viability at 2 days, 100 µM [2]: 6.3% | Screen "Hit" [3, 12]: Y (hits were identified as compounds that reduced relative motility below 0.25 (75% reduction)) | C. elegans KCN Survival [3, 9]: 1.013 | C. elegans KCN Survival ([3]; Dose 0.39 µM): 1.010 | C. elegans KCN Survival ([3]; Dose 1.56 µM): 1.035 | C. elegans KCN Survival ([3]; Dose 3.13 µM): 1.110 | C. elegans KCN Survival ([3]; Dose 6.25 µM): 1.056 | C. elegans KCN Survival ([3]; Dose 12.5 µM): 0.989 | C. elegans KCN Survival ([3]; Dose 25 µM): 0.572 | C. elegans KCN Survival ([3]; Dose 50 µM): 0.188 | C. elegans KCN Survival ([3]; Dose 100 µM): 0.200

Cc1ccc(C(C)C)c(OCC(O)Cn2cnc3ccccc32)c1 (centres unmarked) [Compound 6093301]
activity at 0.0001 µM [1]: 99.6% | activity at 0.0005 µM [1]: 97.6% | activity at 0.001 µM [1]: 98.6% | activity at 0.0025 µM [1]: 105% | activity at 0.005 µM [1]: 96.1% | activity at 0.013 µM [1]: 93.6% | activity at 0.025 µM [1]: 90.6% | activity at 0.063 µM [1]: 81.2% | activity at 0.125 µM [1]: 72.6% | activity at 0.313 µM [1]: 50.3% | activity at 0.625 µM [1]: 38.5% | activity at 1.5 µM [1]: 20.3% | activity at 3 µM [1]: 11.5% | activity at 15 µM [1]: 1.13% | activity at 37.5 µM [1]: 0% | activity at 75 µM [1]: 0% | IC50 [1, 4]: 360 nM | Log IC50 C. elegans complex I [1]: -0.44 µM | IC50 [1, 6]: 360 nM | CC50 at 2 days [2]: 21800 nM | viability at 2 days, 3.13 µM [2]: 90.1% | viability at 2 days, 6.25 µM [2]: 92.9% | viability at 2 days, 12.5 µM [2]: 85.6% | viability at 2 days, 25 µM [2]: 32.4% | viability at 2 days, 50 µM [2]: 7.3% | viability at 2 days, 100 µM [2]: 7.2% | Screen "Hit" [3, 12]: Y (hits were identified as compounds that reduced relative motility below 0.25 (75% reduction)) | C. elegans KCN Survival [3, 9]: 1.001 | C. elegans KCN Survival ([3]; Dose 0.39 µM): 1.016 | C. elegans KCN Survival ([3]; Dose 1.56 µM): 1.025 | C. elegans KCN Survival ([3]; Dose 3.13 µM): 0.981 | C. elegans KCN Survival ([3]; Dose 6.25 µM): 0.940 | C. elegans KCN Survival ([3]; Dose 12.5 µM): 0.855 | C. elegans KCN Survival ([3]; Dose 25 µM): 0.337 | C. elegans KCN Survival ([3]; Dose 50 µM): 0.161 | C. elegans KCN Survival ([3]; Dose 100 µM): 0.196
